Numbers after ± are expanded uncertainties.
What was measured:
[1] = 101 kPa, Liquid; for viscosity: Capillary tube (Ostwald / Ubbelohde) method; for mass density: Pycnometric method
[2] = xn = mol fraction of the nth substance listed; conditions: 101 kPa, Liquid, Capillary tube (Ostwald / Ubbelohde) method, x2 = 0

viscosity ([1]; 293.15 K) [mPa·s] | mass density ([1]; 293.15 K) [kg/m3] | viscosity ([1]; 298.15 K) [mPa·s] | mass density ([1]; 298.15 K) [kg/m3] | viscosity ([1]; 303.15 K) [mPa·s] | mass density ([1]; 303.15 K) [kg/m3] | viscosity ([1]; 308.15 K) [mPa·s] | mass density ([1]; 308.15 K) [kg/m3] | viscosity ([1]; 313.15 K) [mPa·s] | mass density ([1]; 313.15 K) [kg/m3] | viscosity ([2]; 293.15 K) [mPa·s] | viscosity ([2]; 298.15 K) [mPa·s] | viscosity ([2]; 303.15 K) [mPa·s] | viscosity ([2]; 308.15 K) [mPa·s] | viscosity ([2]; 313.15 K) [mPa·s] | SMILES
1.09 ± 0.04 | 945.2 ± 2 | 0.998 ± 0.041 | 939.8 ± 2 | 0.914 ± 0.04 | 935 ± 2 | 0.834 ± 0.04 | 930.7 ± 2 | 0.785 ± 0.04 | 925.4 ± 2 | – | – | – | – | – | COCCOCCOC [2,5,8-trioxanonane]
1.01 ± 0.04 | – | 0.89 ± 0.04 | – | 0.801 ± 0.04 | – | 0.723 ± 0.04 | – | 0.656 ± 0.04 | – | – | – | – | – | – | O [water]
– | – | – | – | – | – | – | – | – | – | 1.01 ± 0.04 | 0.89 ± 0.04 | 0.801 ± 0.04 | 0.723 ± 0.04 | 0.656 ± 0.04 | O [water] + COCCOCCOC
